Some test systems named below: SN12C renal; SK-MEL-5 melanoma; MALME-3M melanoma; UO-31 renal; RPMI-8226 leukemia; HCT-116 colon; DU-145 prostate; SK-OV-3 ovarian; HOP-92 NSCLC; K-562 leukemia.
Common to all, as to test: NCI anticancer screen, dose series, 48 h

SMILES strings stand for the structures. “And” between values parts separate entries of the source, which are not always exact repeats. Identical values can stand only once.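 Values below derive from 48-hour exposures of cells grown in 96-well plates, with endpoints linearly interpolated between the two concentrations bracketing the appropriate inhibition level. GI50: concentration for 50% inhibition of growth. TGI: total growth inhibition.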 Where only a bound is given, the exact number is not on record here.

With `Cn1c(O)c(C(=O)Nc2ccc([N+](=O)[O-])cc2)c(=O)n(C)c1=S`, the TGI with SN12C renal is > 70.7 µM; in the test with SK-MEL-5 melanoma, 5.84 µM; in the test with MALME-3M melanoma it was 5.03 µM; in the test on UO-31 renal, 12.8 µM; in the test on RPMI-8226 leukemia, > 100 µM; with HCT-116 colon, 5.63 µM. For the same molecule, the TGI in the test on DU-145 prostate is 11.5 µM; with SK-OV-3 ovarian it was > 81.1 µM; in the test on HOP-92 NSCLC, 4.7 µM; in the test on K-562 leukemia, > 50.9 µM.

For `COc1ccc(C(Nc2ncccn2)c2cc3c(cc2O)OCO3)cc1` (stereo unspecified), the TGI is 37.8 µM in the test on SN12C renal; 50.9 µM with SK-MEL-5 melanoma; 54.6 µM in the test with MALME-3M melanoma; 34.4 µM with UO-31 renal; > 100 µM in the test with RPMI-8226 leukemia; 71.3 µM in the test on HCT-116 colon. Further, the TGI in the test with DU-145 prostate is 44.4 µM; in the test on SK-OV-3 ovarian, 51.2 µM; with HOP-92 NSCLC it was > 100 µM; with K-562 leukemia, > 100 µM.

As to `CN(Cc1cnc2nc(N)nc(N)c2n1)c1ccc(C(=O)NC(CCC(=O)O)C(=O)O)cc1` (stereo unspecified), the GI50 was 0.0595 µM with SN12C renal; 0.443 µM in the test with SK-MEL-5 melanoma; 43 µM in the test on MALME-3M melanoma; 0.27 µM with UO-31 renal; 0.629 µM in the test with RPMI-8226 leukemia; 0.0416 µM with HCT-116 colon. Further, the results for the GI50 in the test with DU-145 prostate and in the test on SK-OV-3 ovarian were 0.204 µM and 6.04 µM, respectively. The TGI in the test on SN12C renal, in the test with SK-MEL-5 melanoma, in the test with MALME-3M melanoma, in the test with UO-31 renal, with RPMI-8226 leukemia and in the test with HCT-116 colon was > 100 µM in each case. Besides, the TGI with DU-145 prostate, with SK-OV-3 ovarian, in the test with HOP-92 NSCLC and in the test with K-562 leukemia was > 100 µM in each case.

Regarding `COc1ccc2c3c(c(OCCCN(C)C)nc2c1)-c1ccc(Cl)cc1C3=O`, the GI50 is 5.33 µM in the test on SN12C renal; 14.6 µM with SK-MEL-5 melanoma; 10.7 µM in the test with MALME-3M melanoma; 1.51 µM in the test on UO-31 renal; 15.4 µM in the test with RPMI-8226 leukemia; 1.29 µM with HCT-116 colon. Further, the GI50 in the test with DU-145 prostate is 6.08 µM; in the test with SK-OV-3 ovarian, 12.2 µM; in the test with HOP-92 NSCLC, 1.78 µM; in the test on K-562 leukemia it was 2.38 µM. Moreover, the TGI in the test with SN12C renal stood at 21.3 µM; in the test on SK-MEL-5 melanoma it was 28.4 µM; with MALME-3M melanoma, 26.4 µM; in the test with UO-31 renal, 11.1 µM; in the test with RPMI-8226 leukemia, 56.1 µM; in the test on HCT-116 colon, 3.52 µM. Also, the TGI with DU-145 prostate is 19.1 µM; in the test on SK-OV-3 ovarian it was 26.7 µM; with HOP-92 NSCLC, 11.8 µM; with K-562 leukemia it was > 100 µM.

For the molecule `Cn1cnc([N+](=O)[O-])c1Sc1ncnc2c1ncn2C1OC(CO)C(O)C1O` (stereo unspecified), the GI50 with SN12C renal was 41.9 µM; in the test with SK-MEL-5 melanoma, 11.4 µM; with MALME-3M melanoma it was 46.3 µM; with UO-31 renal, 7.1 µM; in the test with RPMI-8226 leukemia it was 2.93 µM; in the test on HCT-116 colon, 4.62 µM. The GI50 in the test on DU-145 prostate is 1.87 µM; with SK-OV-3 ovarian it was 0.564 µM; in the test with HOP-92 NSCLC, 31.3 µM; in the test with K-562 leukemia, 3.35 µM. Moreover, the TGI in the test with SN12C renal, with SK-MEL-5 melanoma, in the test on MALME-3M melanoma, in the test on UO-31 renal, in the test on RPMI-8226 leukemia and with HCT-116 colon was > 100 µM each time. For the same molecule, the TGI in the test with DU-145 prostate, in the test with SK-OV-3 ovarian, in the test with HOP-92 NSCLC and in the test on K-562 leukemia was > 100 µM each time.

Consider `CN(C)c1ccc(/C=C/c2ccnc3ccccc23)cc1`, for which the GI50 was 3.95 µM in the test on SN12C renal; 2.48 µM with SK-MEL-5 melanoma; 11.2 µM in the test with MALME-3M melanoma; 12.1 µM in the test on UO-31 renal; 2.77 µM with RPMI-8226 leukemia; 3.09 µM in the test with HCT-116 colon. Also, the GI50 is 5.86 µM with DU-145 prostate, 4.42 µM in the test on SK-OV-3 ovarian, 0.651 µM in the test on HOP-92 NSCLC and 1.66 µM in the test with K-562 leukemia. For the same molecule, the TGI is > 100 µM in the test on SN12C renal; > 100 µM and 11.7 µM with SK-MEL-5 melanoma; > 100 µM and 55.4 µM in the test with MALME-3M melanoma; > 100 µM with UO-31 renal; > 100 µM and 12.9 µM in the test on RPMI-8226 leukemia; > 100 µM and 13.8 µM with HCT-116 colon. In addition, the TGI in the test with DU-145 prostate was > 100 µM; in the test on SK-OV-3 ovarian, > 100 µM and 48.7 µM; in the test with HOP-92 NSCLC, > 100 µM and 10.8 µM; in the test on K-562 leukemia, > 100 µM.

In the case of `c1ccc(-c2nc(N3CCNCC3)c3nc(-c4ccccc4)oc3n2)cc1`, the GI50 was 1.69 µM in the test on SN12C renal; 1.8 µM with SK-MEL-5 melanoma; 1.7 µM in the test on MALME-3M melanoma; 1.53 µM in the test on UO-31 renal; 2.08 µM with RPMI-8226 leukemia; 1.25 µM with HCT-116 colon. The GI50 was 1.86 µM in the test with DU-145 prostate, 2 µM in the test on SK-OV-3 ovarian, 1.5 µM in the test with HOP-92 NSCLC and 1.44 µM with K-562 leukemia. Besides, the TGI with SN12C renal stood at 3.29 µM; with SK-MEL-5 melanoma, 3.23 µM; in the test with MALME-3M melanoma, 3.19 µM; in the test with UO-31 renal, 2.91 µM; in the test with RPMI-8226 leukemia, 4.64 µM; with HCT-116 colon it was 2.9 µM. Moreover, the TGI in the test with DU-145 prostate was 3.33 µM; with SK-OV-3 ovarian, 3.71 µM; in the test on HOP-92 NSCLC, 3.1 µM; in the test on K-562 leukemia, 4.22 µM.

Regarding `C[C@H]1[C@@H](OCC(CO[C@H]2O[C@@H]3O[C@@]4(C)CC[C@H]5[C@H](C)CC[C@@H]([C@H]2C)[C@@]35OO4)=NOCC(=O)O)OC2O[C@@]3(C)CC[C@H]4[C@H](C)CC[C@@H]1[C@@]24OO3` (stereo partly specified), the GI50 was 0.0215 µM with SN12C renal; 0.0288 µM in the test on SK-MEL-5 melanoma; < 0.0245 µM in the test with MALME-3M melanoma; 0.0968 µM in the test on UO-31 renal; < 0.01 µM in the test on RPMI-8226 leukemia; < 0.01 µM in the test on HCT-116 colon. Moreover, the GI50 in the test with DU-145 prostate was 10.8 µM; in the test with SK-OV-3 ovarian it was 0.786 µM; with HOP-92 NSCLC, < 0.01 µM; in the test on K-562 leukemia it was < 0.01 µM. Moreover, the TGI was determined as 1.02 µM with SN12C renal; 14.9 µM in the test with SK-MEL-5 melanoma; 11.3 µM in the test on UO-31 renal; 13.7 µM with HCT-116 colon; 28.1 µM in the test with DU-145 prostate; 19.6 µM with SK-OV-3 ovarian. For the same molecule, the TGI in the test with HOP-92 NSCLC is 0.0621 µM; with K-562 leukemia it was 17.5 µM.

These data come from PubChem BioAssay (NCI).
